Read-outs that look alike come from different tables or passages of the source. Starred links: 1 amine or outer side, 2 acyl side, 3 side chain; linkers in the order of their positions; H or OH if unused. Non-standard residues stand in square brackets, D forms with d. Residues, ends and D or L forms follow the SMILES beside them. *: point of attachment. Sta = CC(C)C[C@H](N)[C@@H](O)CC(=O)O; AMC = Cc1cc(=O)oc2cc(N*)ccc12; Isovaleryl = CC(C)CC(=O)*; code Z = not defined here; Cbz = O=C(OCc1ccccc1)*; Boc = CC(C)(C)OC(=O)*; CO = O=C([*:1])[*:2]; CH2F = FC*
Assays:
Atmc9 [1] = target: T1, Atmc9 (Arabidopsis thaliana, UniProt Q9FYE1); assay type: biochemical; settings: for inhibition / inactivation of Atmc9: no concentration stated; for inhibition of Atmc9 activity: at the millimolar range
T1 construct: it indeed consists of amino acids 184 to 325 (calculated mass 15427 Da); made in house; host or cells: E. coli BL21(DE3), pDEST17, Ni-NTA purified
T1 sequence (Q9FYE1 1-183 limits assumed): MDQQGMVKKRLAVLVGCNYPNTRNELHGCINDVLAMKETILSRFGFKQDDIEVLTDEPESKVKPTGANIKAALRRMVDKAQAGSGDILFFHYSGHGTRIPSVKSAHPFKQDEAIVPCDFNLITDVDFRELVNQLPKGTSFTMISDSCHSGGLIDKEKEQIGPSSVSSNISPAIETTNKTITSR
T1 sequence (Q9FYE1 184-325 limits assumed): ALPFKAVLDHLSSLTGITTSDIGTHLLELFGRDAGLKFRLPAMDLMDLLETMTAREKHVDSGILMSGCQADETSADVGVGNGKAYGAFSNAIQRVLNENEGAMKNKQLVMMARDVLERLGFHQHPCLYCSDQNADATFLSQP
Description: Assays were performed in 150 μl with 400 ng of purified Atmc9 and 50 μM substrate in an optimized metacaspase 9 assay buffer (50 mM MES pH 5.3, 10% (w/v) sucrose, 0.1% (w/v) 3-[(3-cholamidopropyl)dimethylammonio]-1-propanesulfonate [CHAPS], 10 mM DTT). Time-dependent release of free amido-4-methylcoumarin (AMC) was measured on a Cytofluor 4000 fluorescence microplate reader (PerSeptive Biosystems, Farmingham, Md., USA).
We also assessed the sensitivity of Atmc9 for several protease inhibitors, chelating agents, metal ions, and stabilizing agents in the GKR-ase assay (Table 2). […] To optimize the assay conditions for Atmc9 activity, several stabilizing agents were tested.
Percentage of the activity of recombinant Atmc9 in 50 mM MES (pH 5.3) and 10 mM DTT.

[2] = system: Lysates from 293T cells overexpressing metacaspases; assay: Caspase substrates incubated with lysates from 293T cells overexpressing metacaspases; assay type: biochemical, Arabidopsis thaliana
Description: For mammalian overexpression, cDNAs for metacaspases were cloned into pDEST26 (Invitrogen, Gaithersburg, Md., USA), resulting in an N-terminal HIS6-fusion under transcriptional control of the constitutive CMV promoter. Human embryonic kidney cells 293T were cultured in DMEM supplemented with 2 mM L-glutamine, 10% fetal calf serum, 106 U/i streptomycin, […] penicillin and 0.4 mM sodium pyruvate. 5×10^5 cells (6 well plate) were seeded and next day transfected using the calcium phosphate method as described previously (Van de Craen et al., 1998).
Lysates from 293T cells overexpressing metacaspases were also incubated with different synthetic fluorigenic substrates for caspases, namely acetyl-Asp-Glu-Val-Asp-aminomethylcoumarin (Ac-DEVD-amc), acetyl-Ile-Glu-Thr-Asp-aminomethylcoumarin (Ac-IETD-amc), Acetyl-Leu-Glys-His-Asp-aminomethylcoumarin (Ac-LEHD-amc), acetyl-Trp-Glu-His-Asp-aminomethylcoumarin (Ac-WEHD-amc), Acetyl-Tyr-Val-Ala-Asp-aminomethylcoumarin (Ac-YVAD-amc) and benzyloxycarbonyl-Val-Ala-Asp-aminomethylcoumarin (zVAD-amc).

metacaspase 3 = target: T2, metacaspase 3 (Arabidopsis thaliana, UniProt Q9FMG1); assay: Cleavage of fluorescent artificial substrates by purified metacaspase 3; assay type: biochemical; settings: assay buffers of pHs ranging from 4.5 to 9.0 (MES 50 mM)
T2 construct: made in house; host or cells: bacterial production, pDEST17 (E. coli by the general method)
T2 sequence (Q9FMG1 1-362 R151K/L157V/V158I/Q177E): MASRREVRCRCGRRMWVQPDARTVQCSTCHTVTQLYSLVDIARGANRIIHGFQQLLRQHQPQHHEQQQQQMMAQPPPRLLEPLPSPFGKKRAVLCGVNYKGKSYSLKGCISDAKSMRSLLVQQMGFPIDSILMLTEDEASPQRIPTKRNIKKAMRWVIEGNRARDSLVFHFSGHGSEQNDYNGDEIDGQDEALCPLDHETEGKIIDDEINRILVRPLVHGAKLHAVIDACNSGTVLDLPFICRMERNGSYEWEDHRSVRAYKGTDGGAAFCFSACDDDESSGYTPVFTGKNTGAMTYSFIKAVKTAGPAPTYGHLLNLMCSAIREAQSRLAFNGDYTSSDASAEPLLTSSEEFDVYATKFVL
From the text: For generation of the prodomain deletion mutant of Arabidopsis thaliana metacaspase 3 (MC3ΔN), residues 1 to 91 were replaced by a methionine residue by PCR, using 5′-[…]-3′ (SEQ ID NO:43) as the forward primer and 5′-[…]-3′ (SEQ ID NO:17) as the reverse primer. 5′ extensions used for Gateway™ (Invitrogen) cloning were 5′-[…]-3′ (SEQ ID NO:44) for forward primers and 5′-[…]-3′ (SEQ ID NO:45) for reverse primers. For bacterial production, the cDNA's were cloned into the bacterial expression vector pDEST17™ (Invitrogen), resulting in the amino-terminal translational addition of the following HIS6 tag-containing sequence: […] (SEQ ID NO:37).
Activity of purified metacaspase 3 was tested with different fluorescent substrates in assay buffers of pHs ranging from 4.5 to 9.0 (MES 50 mM). The substrates tested were: Ac-DEVD-AMC, Z-VAD-AMC, Boc-GRR-AMC, Boc-GKR-AMC, Z-FR-AMC and H-AFK-AMC. Only Z-FR-AMC was cut by metacaspase 3.

Atmc9 [3] = target: T1, Atmc9; assay: kcat/Km of artificial substrates of Atmc9; assay type: biochemical; settings: summary of Table 1
Description: The activity assay buffer used was composed of 50 mM MES pH 5.3, 10% (w/v) sucrose, 0.1% (w/v) 3-[(3-cholamidopropyl)dimethylammonio]-1-propanesulfonate [CHAPS], 10 mM DTT.
Release of free AMC was determined in a time course using a FLUOstar Optima fluorescence plate reader (BMB Lab Technologies, Offenburg, Del.). After total hydrolysis of the substrates, kcatlKm was calculated using the following formula: kcat/Km=kobsIEt, where kobs is determined as the decrease per second of the natural logarithm of substrate left, and Et is the concentration of enzyme active sites in the reaction.

## CC(C)C[C@H](NC(=O)[C@H]1O[C@@H]1C(=O)O)C(=O)NCCCCN=C(N)N (relative stereo) [E-64, L-trans-epoxysuccinyl-leucylamide-(4-guanido)-butane]
Atmc9 [1]
  inhibition / inactivation of Atmc9: no significant blocking capacity
Atmc9 [1]; pH 5.3
  Activity (%): 92%

## CC(C)[C@H](NC(=O)[C@H](CCCNC(=N)N)NC(=O)N[C@@H](Cc1ccccc1)C(=O)O)C(=O)N[C@H](C=O)CCCNC(=N)N [Antipain] ({Phe-CO}-Arg-Val-Arg-aldehyde)
Atmc9 [1]; pH 5.3
  Activity (%): 13%

## N=C(N)c1ccccc1 [Benzamidine]
Atmc9 [1]
  inhibition of Atmc9 activity: inhibited
Atmc9 [1]; pH 5.3
  Activity (%): 22%

## C[C@H](CCC(=O)NCCC[N+](C)(C)CCCS(=O)(=O)[O-])[C@H]1CC[C@H]2[C@@H]3[C@H](O)C[C@@H]4C[C@H](O)CC[C@]4(C)[C@H]3C[C@H](O)[C@]12C [CHAPS, 3-[(3-cholamidopropyl)dimethylammonio]-1-propanesulfonate]
Atmc9 [1]; pH 5.3
  Activity (%): 127%

## CC(C)C[C@H](NC(=O)[C@@H](NC(=O)N[C@@H](Cc1ccccc1)C(=O)O)[C@@H]1CCN=C(N)N1)C(=O)N[C@H](C=O)Cc1ccccc1 [Chymostatin]
Atmc9 [1]
  inhibition / inactivation of Atmc9: weak inhibitors
Atmc9 [1]; pH 5.3
  Activity (%): 33%

## NC(=O)CI [Iodoacetamide]
Atmc9 [1]
  inhibition of Atmc9 activity: inhibited
Atmc9 [1]; pH 5.3
  Activity (%): 8%

## CC(=O)N[C@@H](CC(C)C)C(=O)N[C@@H](CC(C)C)C(=O)N[C@H](C=O)CCCNC(=N)N [Leupeptin]
Atmc9 [1]; at concentrations as low as 1 μM
  inhibition of Atmc9: strongly inhibited
Atmc9 [1]; pH 5.3
  Activity (%): 1%

## O=S(=O)(F)Cc1ccccc1 [PMSF]
Atmc9 [1]
  inhibition / inactivation of Atmc9: no significant blocking capacity
Atmc9 [1]; reagent 1 mM, % of activity of recombinant Atmc9 in 50 mM MES pH 5.3, 10 mM DTT
  Activity (%): 86%

## CC(C)CC(=O)N[C@H](C(=O)N[C@H](C(=O)N[C@@H](CC(C)C)[C@@H](O)CC(=O)N[C@@H](C)C(=O)N[C@@H](CC(C)C)[C@@H](O)CC(=O)O)C(C)C)C(C)C [Pepstatin] (Isovaleryl-VV[Sta]A[Sta]-OH)
Atmc9 [1]
  inhibition / inactivation of Atmc9: no significant blocking capacity
Atmc9 [1]; pH 5.3
  Activity (%): 97%

## OC[C@H]1O[C@@](CO)(O[C@H]2O[C@H](CO)[C@@H](O)[C@H](O)[C@H]2O)[C@@H](O)[C@@H]1O [Sucrose]
Atmc9 [1]; pH 5.3
  Activity (%): 121%

## Cc1ccc(S(=O)(=O)N[C@@H](Cc2ccccc2)C(=O)CCl)cc1 [TPCK, N^□-tosyl-L-phenylalanyl-chloromethyl ketone]
Atmc9 [1]
  inhibition / inactivation of Atmc9: weak inhibitors
Atmc9 [1]; pH 5.3
  Activity (%): 35%

## Acetyl-Leu-Glys-His-Asp-aminomethylcoumarin [Ac-LEHD-amc]
[2]
  activity of lysates on synthetic fluorigenic caspase substrates: no significant increase in activity

## Acetyl-Tyr-Val-Ala-Asp-aminomethylcoumarin (Ac-YVAD-{AMC}; SMILES CC(=O)N[C@@H](Cc1ccc(O)cc1)C(=O)N[C@H](C(=O)N[C@@H](C)C(=O)N[C@@H](CC(=O)O)C(=O)Nc1ccc2c(C)cc(=O)oc2c1)C(C)C) [Ac-YVAD-amc]
[2]
  activity of lysates on synthetic fluorigenic caspase substrates: no significant increase in activity

## Aprotinin
Atmc9 [1]
  inhibition / inactivation of Atmc9: no significant blocking capacity
Atmc9 [1]; pH 5.3
  Activity (%): 96%

## H-Ala-Phe-Lys-7-amido-4-methylcoumarin (H-Ala-Phe-Lys-{AMC}; SMILES Cc1cc(=O)oc2cc(NC(=O)[C@H](CCCCN)NC(=O)[C@H](Cc3ccccc3)NC(=O)[C@H](C)N)ccc12) [H-AFK-AMC]
Metacaspase 3
  cleavage by metacaspase 3: No activity was detected
Atmc9 [3]
  quality as substrate for Atmc9: less efficiently cleaved

## Z-DEVD-cmk: caspase inhibitor; cmk, chloromethyl ketone
Atmc9 [1]; pH 5.3
  Activity (%): 94%

## Z-VAD-fmk: caspase inhibitor; fmk, fluoromethyl ketone ({code Z}-Val-Ala-Asp-CH2F; reading uncertain; also: printed as Z-VAD-fmk)
Atmc9 [1]; pH 5.3
  Activity (%): 87%

## Z-YVAD-cmk: caspase inhibitor; cmk, chloromethyl ketone
Atmc9 [1]; pH 5.3
  Activity (%): 100%

## acetyl-Asp-Glu-Val-Asp-aminomethylcoumarin [Ac-DEVD-AMC]
Metacaspase 3
  cleavage by metacaspase 3: No activity was detected
[2]
  activity of lysates on synthetic fluorigenic caspase substrates: no significant increase in activity

## acetyl-Ile-Glu-Thr-Asp-aminomethylcoumarin (Ac-IETD-{AMC}; SMILES CC[C@H](C)[C@H](NC(C)=O)C(=O)N[C@@H](CCC(=O)O)C(=O)N[C@H](C(=O)N[C@@H](CC(=O)O)C(=O)Nc1ccc2c(C)cc(=O)oc2c1)[C@@H](C)O) [Ac-IETD-amc]
[2]
  activity of lysates on synthetic fluorigenic caspase substrates: no significant increase in activity

## acetyl-Trp-Glu-His-Asp-aminomethylcoumarin (Ac-WEHD-{AMC}; SMILES CC(=O)N[C@@H](Cc1c[nH]c2ccccc12)C(=O)N[C@@H](CCC(=O)O)C(=O)N[C@@H](Cc1c[nH]cn1)C(=O)N[C@@H](CC(=O)O)C(=O)Nc1ccc2c(C)cc(=O)oc2c1) [Ac-WEHD-amc]
[2]
  activity of lysates on synthetic fluorigenic caspase substrates: no significant increase in activity

## benzyloxycarbonyl-Val-Ala-Asp-aminomethylcoumarin (Cbz-Val-Ala-Asp-{AMC}) [Z-VAD-AMC]
Metacaspase 3
  cleavage by metacaspase 3: No activity was detected
[2]
  activity of lysates on synthetic fluorigenic caspase substrates: no significant increase in activity

## t-butyloxycarbonyl-Gly-Arg-Arg-7-amido-4-methylcoumarin (Boc-Gly-Arg-Arg-{AMC}) [Boc-GRR-AMC]
Metacaspase 3
  cleavage by metacaspase 3: No activity was detected
Atmc9 [3]
  quality as substrate for Atmc9: good substrates

B1: Soybean trypsin inhibitor: protease inhibitor (protein)
chain: DFVLDNEGNPLENGGTYYILSDITAFGGIRAAPTGNERCPLTVVQSRNELDKGIGTIISSPYRIRFIAEGHPLSLKFDSFAVIMLCVGIPTEWSVVEDLPEGPAVKIGENKDAMDGWFRLERVSDDEFNNYKLVFCPQQAEDDKCGDIGISIDHDDGTRRLVVSKNKPLVVQFQKLDKESL
Atmc9 [1]
  inhibition / inactivation of Atmc9: no significant blocking capacity
Atmc9 [1]; pH 5.3
  Activity (%): 73%
